We go through nine molecules from patent US5917057A, “N-hydroxy-dibenz[b,e]oxepinalkylamines, n-hydroxy-dibenz[b,e]oxepinalkanoic acid amides and related heterocyclic analogues” (Hoechst Marion Roussel, Inc., priority 1998, dated 1999).

Experiment [1] deals with phenyl-para-quinone induced writhing. Kind of experiment: phenyl-para-benzoquinone writhing assay in mice (analgesia). In kind it is in vivo. The conditions noted are these: at 20 mg/kg. The source says: The compounds of the present invention are also useful as analgesic agents due to their ability to alleviate pain in mammals. […] Exptl. Biol. Med., 95, 729 (1957)].
The test system of experiment [2] is mouse ear edema induced by topical application of arachidonic acid. Kind of experiment: Arachidonic Acid-Induced Mouse Ear Edema (AAEE). In kind it is in vivo, Female Swiss Webster mice. The conditions noted are these: 1 mg/ear topical, 30 min before arachidonic acid 4 mg/ear; relative to control. The procedure:
Arachidonic Acid-Induced Mouse Ear Edema (AAEE)
The purpose of this assay was to determine the ability of a topically applied compound to prevent mouse ear edema induced by topical application of arachidonic acid. Female Swiss Webster mice topically received vehicle or test compound (1.0 mg/ear) on both ears (10 μl on outer and inner ears). After 30 minutes, arachidonic acid is applied to the right ear of each mouse of each group in the amount of 4 mg/ear. Vehicle is applied to the left ear of each mouse of each group at a volume of 20 μl/ear. After an additional hour, the mice are sacrificed and a 4 mm plug is taken from each ear and weighed. The difference between the right and left ear plugs was determined for each animal. The antiinflammatory activity of the test compound is expressed as the mean percent change in the ear plug weight of the treated animals relative to the mean percent change in weights of control animals' ear. (Standard: Indomethacin--90% at 1 mg/ear). Young, J. M. et al., Invest. Dermatol., 80, (1983), pp. 48-52.

In experiment [3] the test system is ear edema induced by topical application of TPA (phorbol 12-myristate acetate). As to the kind of experiment: TPA-Induced Ear Edema (TPAEE). The class given is in vivo, Female Swiss Webster mice. Particulars: 10 μg/ear topical; TPA 10 μg/ear; about 5 hours; relative to control. The procedure: TPA-Induced Ear Edema (TPAEE)
The purpose of this assay was to determine the ability of a topically applied compound to prevent ear edema induced by topical application of TPA (phorbol 12-myristate acetate). Female Swiss Webster mice topically received TPA (10 μg/ear) on the right ear and vehicle on the left ear. The test compound (10 μg/ear) was applied to both ears. After about 5 hours, the animals are sacrificed and a 4 mm diameter plug is taken from each ear and weighed. The difference between the right and left ear plug weights for each animal was determined. The antiinflammatory activity of the test compound is expressed as the mean percent change in ear plug weight of the treated animals compared to the mean percent change in the plug weight of the control animals. (Standard: Indomethacin:--86% at 1 mg/ear). Young, J. M. et al., J. Invest. Dermatol., 80 (1983), pp. 48-52.

The target in the next experiment is T1, 5-lipoxygenase (Rattus norvegicus, UniProt P12527).
T1 construct: cell-free 5-lipoxygenase enzyme obtained from rat basophilic leukemia (RBL-1) cells; endogenous in cells; host or cells: RBL-1 rat basophilic leukemia cells, cell-free supernatant of sonicated cells
T1 sequence (P12527 1-673): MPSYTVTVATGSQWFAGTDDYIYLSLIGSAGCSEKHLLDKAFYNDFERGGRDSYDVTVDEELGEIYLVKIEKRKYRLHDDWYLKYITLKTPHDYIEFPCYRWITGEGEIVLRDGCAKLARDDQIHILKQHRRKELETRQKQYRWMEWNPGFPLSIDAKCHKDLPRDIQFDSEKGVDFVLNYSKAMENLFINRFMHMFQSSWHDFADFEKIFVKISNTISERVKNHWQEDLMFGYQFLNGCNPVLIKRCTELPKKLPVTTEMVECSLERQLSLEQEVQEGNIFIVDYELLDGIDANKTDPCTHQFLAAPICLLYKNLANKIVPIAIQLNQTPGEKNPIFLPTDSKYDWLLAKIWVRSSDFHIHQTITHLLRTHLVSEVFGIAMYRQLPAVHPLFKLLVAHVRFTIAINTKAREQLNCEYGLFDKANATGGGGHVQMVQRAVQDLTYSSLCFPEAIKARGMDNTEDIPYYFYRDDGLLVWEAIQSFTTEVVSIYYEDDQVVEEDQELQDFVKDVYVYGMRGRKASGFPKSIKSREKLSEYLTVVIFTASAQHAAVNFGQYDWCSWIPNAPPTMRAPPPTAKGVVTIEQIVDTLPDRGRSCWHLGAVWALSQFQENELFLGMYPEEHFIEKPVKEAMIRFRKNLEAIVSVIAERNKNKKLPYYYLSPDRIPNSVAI
Kind of experiment: In Vitro 5-Lipoxygenase Assay (5-HETE). The class given is biochemical. The conditions noted are these: RBL-1 cell-free supernatant, 10 μM arachidonic acid, 37° C. The procedure: The ability of a compound to reduce 5-HETE production by cell-free 5-lipoxygenase enzyme obtained from rat basophilic leukemia (RBL-1) cells was measured by a modified procedure of Cochran et al. [Biochem. Biophys. Res. Commun., 161, 1327 (1989)]. RBL-1 cell-free supernatants were prepared by a modification of the method of Jakschik et al., [Prostaglandins, 25, 767 (1983)]. Cells (1×10^9) were collected by centrifugation (22°) and washed at […] with 50 mM phosphate buffer at 5×10^7 cells/ml. Cells were lysed on ice for 45 seconds with a Teckmar sonic disrupter. The homogenate was centrifuged (4° C) for 25 minutes and the supernatant (5 μg protein/μl) was decanted and stored at -80° C. A 1% dimethylsulfoxide (DMSO) vehicle (DMSO in deionized water) was utilized at various concentrations of the test compound. Duplicate reactions were run in 35mM buffer in the presence of 5 μM ATP, 50 μM CaCl2 and 10 μM arachidonic acid at 37° C. The reaction was terminated with 10 μl 0.3 citrate buffer and diluted with BGGE buffer (0.01M phosphate, 0.1% bovine gamma globulin, pH 8.5) containing 114 μM BHT with ice bath cooling. 5-Hydroxyeicosatetraenoic acid (5-HETE) levels were quantitated by radioimmunoassay according to standard procedures.

The test system of experiment [4] is naja naja (snake venom) phospholipase A2 (PLA2)-induced paw edema. Kind of experiment: Phospholipase A2-Induced Paw Edema (PIPE). In kind it is in vivo, male Wistar rats. Particulars: subplantar; for PIPE 0.1M: 0.1 M test compound injected with PLA2 (3 units/100 μl/paw), rat left hindpaw, two hours; for PIPE ED50: standards, rat hindpaw. The procedure:
Phospholipase A2 -Induced Paw Edema (PIPE)
The ability of compounds to reverse naja naja (snake venom) phospholipase A2 (PLA2)-induced paw edema in male Wistar rats (100-125 gm) was measured. PLA2 (3 units/100 μl dH2 O/paw) alone or with 0.1 M of the test compound was injected in the subplantar region of the rat left hindpaw. Immediately following injection and at two hours post administration, the paw was immersed in a mercury bath, and paw displacement was measured on a recorder via a transducer. The value was then converted to mm Hg. […] Giessler, A. J. et al., "Agents and Actions", Vol. 10, "Trends in Inflammation Research" (1981), p. 195.

Experiment [5] relates to cyclooxygenase metabolite (PGE2) formation in cultured 3T3 mouse fibroblasts (CCL92-3T3). As to the kind of experiment: In Vitro Cyclooxygenase Assay (PGE2). The conditions noted are these: Fibroblast, 24 hours; for IC50: radioimmunoassay. The class given is cell-based. The procedure: The ability of a compound to reduce cyclooxygenase metabolite formation in cultured 3T3 mouse fibroblasts (CCL92-3T3) was measured by radioimmunoassay of prostaglandin E2 (PGE2) levels in the culture media. The 3T3 cells were maintained in complete Dulbecco's Modified Eagles Medium (DMEM) containing 10% calf serum, 2 mM L-glutamine and 5000 units/ml of penicillin/streptomycin. After seeding in 24 mm tissue culture dishes at […], the cells were cultured for 24 hours. Media was removed by aspiration and replaced with DMEM (1 ml/well, 4 wells/treatment) containing test compound, which was previously dissolved in ethanol, or vehicle at various concentrations. The cells were then incubated for 24 hours and PGE2 levels in the media were quantitated by radioimmunoassay according to established procedure (Lingren et al., FEBS Lett., 48, 22). The mean value from duplicate determinations was utilized to assess the % change from control values for each treatment group.

On to `O=C1c2ccccc2COc2ccc(CCC(=O)N(O)C3CCCCC3)cc21` [3-(6,11-Dihydro-11-oxodibenz[b,e]oxepin-2-yl)-N-cyclohexyl-N-hydroxypropanamide], for which, in experiment [1], the “% Inhibition of Writhing” value came out at 76%.
Consider `CCN(O)CCc1ccc2c(c1)Cc1ccccc1CO2` [2-(6,11-Dihydrodibenz[b,e]oxepin-2-yl)-N-ethyl-N-hydroxyethylamine], for which the “AAEE % Change” value in experiment [2] is on record as -50%. In experiment [3], the TPAEE percent change is on record as -84%. On 5-lipoxygenase, this molecule displayed a half-maximal inhibitory concentration (IC50) of 280 nM.
Turning to `CN(O)C(=O)CCc1ccc2c(c1)C(=O)c1ccccc1CO2` [3-(6,11-Dihydro-11-oxodibenz[b,e]oxepin-2-yl)-N-hydroxy-N-methylpropanamide], the “PIPE 0.1M” value in experiment [4] was -46. Also, the “AAEE % Change” value in experiment [2] is reported as -63%. In addition, the TPAEE percent change in experiment [3] is reported as -71%. Also, the results for the half-maximal inhibitory concentration (IC50) (against 5-lipoxygenase; in experiment [5]) were 50 nM and 780 nM, respectively.
Take `CN(O)C(=O)CCc1ccc2c(c1)Cc1ccccc1CO2` [3-(6,11-Dihydro-dibenz[b,e]oxepin-2-yl)-N-hydroxy-N-methylpropanamide]: the “AAEE % Change” value in experiment [2] was -67%. For the same molecule, the concentration for half-maximal inhibition (IC50) against 5-lipoxygenase is 80 nM; in experiment [5], 1000 nM.
Take `C[C@]12CCC(=O)C=C1CC[C@@H]1[C@@H]2[C@@H](O)C[C@@]2(C)[C@H]1CC[C@]2(O)C(=O)CO` [Hydrocortisone, reference compound]: the “PIPE ED50” value in experiment [4] was 0.46 M.
Consider `CCN(CC)CCCC(C)Nc1c2ccc(Cl)cc2nc2ccc(OC)cc12` (centres unmarked) [Quinacrine, reference compound], for which the “PIPE ED50” value in experiment [4] is reported as 0.1 M.
`CC(C)Cc1ccc(C(C)C(=O)O)cc1` (centres unmarked) [Ibuprofen, reference compound]: the IC50 in experiment [5] was found to be 22 nM.
On to `CN(O)CCc1ccc2c(c1)C(=O)c1ccccc1CO2` [2-(6,11-Dihydro-11-oxodibenz[b,e]oxepin-2-yl)-N-hydroxy-N-methyl-ethylamine], for which, in experiment [4], the “PIPE 0.1M” value is -70. In addition, in experiment [2], the “AAEE % Change” value was -46%. For the same molecule, in experiment [3], the TPAEE percent change is -50%. The 50% inhibitory concentration (IC50) against 5-lipoxygenase was determined as 240 nM; in experiment [5], 100 nM.
With `O=C1c2ccccc2COc2ccc(CC(=O)N(O)C3CCCCC3)cc21` [N-Cyclohexyl-2-(6,11-dihydro-11-oxodibenz[b,e]oxepin-2-yl)-N-hydroxyacetamide], the “PIPE 0.1M” value in experiment [4] is recorded as -85. In experiment [2], the “AAEE % Change” value is -29%. Also, in experiment [3], the TPAEE percent change was -52%. Further, in experiment [1], the “% Inhibition of Writhing” value amounted to 68%. Also, the IC50 at 5-lipoxygenase stood at 500 nM. In addition, the inhibition at 1 µM in experiment [5] (@1 μM, read-out: PGE2 % change) is 17%.
